According to PubChem BioAssay (NCI):
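Exposure lasted 48 hours, with cells grown in 96-well plates and compounds tested at five concentrations. At the GI50, growth is halved. TGI denotes the concentration required for complete inhibition of growth.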

Columns and labels:
Assay in all cases: DTP human tumour cell line panel, 48 h
[1] = test system: BT-549 breast
[2] = test system: 786-0 renal
[3] = test system: HS 578T breast
[4] = test system: HOP-62 NSCLC
[5] = test system: MDA-MB-231 breast
[6] = test system: SN12C renal
[7] = test system: HOP-92 NSCLC
[8] = test system: SK-MEL-28 melanoma
[9] = test system: NCI-H23 lung
[10] = test system: HCT-116 colon
[11] = test system: MOLT-4 leukemia
[12] = test system: M14 melanoma
[13] = test system: IGROV1 ovarian
[14] = test system: K-562 leukemia
[15] = test system: RPMI-8226 leukemia
[16] = test system: SNB-19 CNS
[17] = test system: DU-145 prostate
[18] = test system: SF-268 CNS
[19] = test system: OVCAR-8 ovarian
[20] = test system: LOX IMVI melanoma
[21] = test system: EKVX NSCLC
[22] = test system: NCI/ADR-RES ovarian
[23] = test system: A498 renal
[24] = test system: SF-295 CNS
[25] = test system: MCF7 breast
[26] = test system: MDA-MB-468 breast
[27] = test system: UACC-257 melanoma
[28] = test system: RXF 393 renal
[29] = test system: MALME-3M melanoma
[30] = test system: CAKI-1 renal
[31] = test system: SW-620 colon
[32] = test system: NCI-H522 lung
[33] = test system: CCRF-CEM leukemia
[34] = test system: OVCAR-4 ovarian
[35] = test system: A549 NSCLC
[36] = test system: OVCAR-5 ovarian
[37] = test system: SR leukemia
[38] = test system: SK-MEL-5 melanoma
[39] = test system: HCC-2998 colon
[40] = test system: NCI-H460 lung
[41] = test system: SNB-75 CNS
[42] = test system: TK-10 renal
[43] = test system: OVCAR-3 ovarian
[44] = test system: U251 CNS
[45] = test system: SF-539 CNS
[46] = test system: HL-60(TB) leukemia
[47] = test system: SK-MEL-2 melanoma
[48] = test system: ACHN renal
[49] = test system: T-47D breast
[50] = test system: PC-3 prostate
[51] = test system: NCI-H226 lung
[52] = test system: HCT-15 colon
[53] = test system: UACC-62 melanoma
[54] = test system: COLO 205 colon
[55] = test system: MDA-MB-435
[56] = test system: SK-OV-3 ovarian
[57] = test system: KM12 colon
[58] = test system: UO-31 renal

O=C(N/N=C/c1ccc(Cl)o1)c1[nH]c2ccc(Br)cc2c1-c1ccccc1 gave a GI50 [1] of 0.295 µM, a TGI [1] of 1.75 µM and a GI50 [2] of 0.443 µM. For the same compound, the TGI [2] was 8.54 µM, the GI50 [3] was 0.264 µM and the TGI [3] was 16.6 µM. It also gave a GI50 [4] of 0.472 µM, a TGI [4] of 27.4 µM and a GI50 [5] of 0.316 µM. For the same compound, the TGI [5] was 12.1 µM, the GI50 [6] was 0.377 µM and the TGI [6] was 14.2 µM. The GI50 [7] was 4.2 µM, the TGI [7] was 43.2 µM and the GI50 [8] was 0.993 µM. It also gave a TGI [8] greater than 61.2 µM, a GI50 [9] of 0.417 µM and a TGI [9] of 27.3 µM. It also gave a GI50 [10] of 0.128 µM, a TGI [10] of 3.52 µM and a GI50 [11] of 0.405 µM. It also gave a TGI [11] greater than 51.6 µM, a GI50 [12] of 0.278 µM and a TGI [12] of 23.1 µM. The GI50 [13] was 0.401 µM, the TGI [13] was greater than 94.9 µM and the GI50 [14] was 0.251 µM. The TGI [14] was greater than 100 µM, the GI50 [15] was 0.407 µM and the TGI [15] was greater than 40.5 µM. The GI50 [16] was 0.442 µM, the TGI [16] was greater than 100 µM and the GI50 [17] was 0.382 µM. It also gave a TGI [17] of 13.3 µM, a GI50 [18] of 0.575 µM and a TGI [18] greater than 48.1 µM. For the same compound, the GI50 [19] was 0.298 µM, the TGI [19] was 3.18 µM and the GI50 [20] was 0.276 µM. The TGI [20] was 14.9 µM, the GI50 [21] was 0.585 µM and the TGI [21] was greater than 100 µM. The GI50 [22] was 0.168 µM, the TGI [22] was 0.514 µM and the GI50 [23] was 20.1 µM. The TGI [23] was 48.9 µM, the GI50 [24] was 0.331 µM and the TGI [24] was greater than 49.7 µM. It also gave a GI50 [25] of 0.292 µM, a TGI [25] greater than 100 µM and a GI50 [26] of 0.276 µM. It also gave a TGI [26] of 6.37 µM, a GI50 [27] of 3.4 µM and a TGI [27] greater than 100 µM. For the same compound, the GI50 [28] was 0.397 µM, the TGI [28] was 26.1 µM and the GI50 [29] was 0.462 µM. For the same compound, the TGI [29] was 49.9 µM, the GI50 [30] was 0.389 µM and the TGI [30] was 17.9 µM. It also gave a GI50 [31] of 0.378 µM, a TGI [31] of 27.2 µM and a GI50 [32] of 0.137 µM. The TGI [32] was 0.463 µM, the GI50 [33] was 0.351 µM and the TGI [33] was 20.2 µM. It also gave a GI50 [34] of 3.81 µM, a TGI [34] of 40.2 µM and a GI50 [35] of 0.383 µM. For the same compound, the TGI [35] was 32.4 µM, the GI50 [36] was 0.388 µM and the TGI [36] was 22.1 µM. The GI50 [37] was 0.458 µM, the TGI [37] was greater than 100 µM and the GI50 [38] was 0.247 µM. For the same compound, the TGI [38] was 0.889 µM, the GI50 [39] was 0.38 µM and the TGI [39] was 35.1 µM. It also gave a GI50 [40] of 0.328 µM, a TGI [40] of 10.6 µM and a GI50 [41] of 0.309 µM. The TGI [41] was 18.3 µM, the GI50 [42] was 8.98 µM and the TGI [42] was 37.2 µM. It also gave a GI50 [43] of 0.367 µM, a TGI [43] of 14.7 µM and a GI50 [44] of 0.34 µM. For the same compound, the TGI [44] was 28.1 µM, the GI50 [45] was 0.212 µM and the TGI [45] was 0.625 µM. For the same compound, the GI50 [46] was 0.235 µM, the TGI [46] was 0.713 µM and the GI50 [47] was 0.423 µM. The TGI [47] was greater than 100 µM, the GI50 [48] was 0.523 µM and the TGI [48] was 21 µM. For the same compound, the GI50 [49] was 4.53 µM, the TGI [49] was greater than 100 µM and the GI50 [50] was 0.402 µM. It also gave a TGI [50] greater than 100 µM, a GI50 [51] of 0.619 µM and a TGI [51] of 29.6 µM. The GI50 [52] was 0.343 µM, the TGI [52] was 33.6 µM and the GI50 [53] was 0.346 µM. It also gave a TGI [53] greater than 85.9 µM, a GI50 [54] of 0.245 µM and a TGI [54] of 0.549 µM. It also gave a GI50 [55] of 0.17 µM, a TGI [55] of 0.542 µM and a GI50 [56] of 0.567 µM. The TGI [56] was greater than 100 µM, the GI50 [57] was 0.393 µM and the TGI [57] was greater than 100 µM. For the same compound, the GI50 [58] was 0.627 µM and the TGI [58] was 25.9 µM.
